Species: Rattus norvegicus
Test: DrugMatrix - Regimen: Daily Repeat
Format: toxicity, organism-based, Sprague-Dawley
Parameters: regimen Daily Repeat, gender Male, age 6-8 weeks
Conditions: in vivo, po, route oral GAVAGE, vehicle .5 % CMC; for ABSOLUTE BASOPHIL / ABSOLUTE EOSINOPHIL / ABSOLUTE LYMPHOCYTE / ABSOLUTE MONOCYTE / ABSOLUTE SEGMENTED NEUTROPHIL / BASOPHIL / EOSINOPHIL / ERYTHROCYTE COUNT / HEMATOCRIT / HEMOGLOBIN / LEUKOCYTE COUNT / LYMPHOCYTE / MEAN CORPUSCULAR HEMOGLOBIN / MEAN CORPUSCULAR HEMOGLOBIN CONCENTRATION / MEAN CORPUSCULAR VOLUME / MONOCYTE / NEUTROPHIL / NUCLEATED RED BLOOD CELLS / PLATELET COUNT: tissue Blood; for ALANINE AMINOTRANSFERASE / ALBUMIN / ALKALINE PHOSPHATASE / ASPARTATE AMINOTRANSFERASE / BLOOD UREA NITROGEN / CARBON DIOXIDE / CHLORIDE / CHOLESTEROL / CREATINE PHOSPHOKINASE / CREATININE / GLUCOSE / LACTATE DEHYDROGENASE / LIPASE / PHOSPHORUS / POTASSIUM / SODIUM / TOTAL BILIRUBIN / TOTAL PROTEIN / URIC ACID: tissue Plasma
[1] = 0 mg/kg, 72 h, dose level Control, time 3 day
[2] = 0 mg/kg, 120 h, dose level Control, time 5 day
[3] = 2500 mg/kg, 72 h, dose level High, time 3 day

CN1CCC[C@@H]1CCO[C@](C)(c1ccccc1)c1ccc(Cl)cc1 [CLEMASTINE]
ABSOLUTE BASOPHIL [1]: 0 CELLS/uL | ABSOLUTE EOSINOPHIL [1]: 0 CELLS/uL | ABSOLUTE LYMPHOCYTE [1]: 12191.17 CELLS/uL | ABSOLUTE MONOCYTE [1]: 183.17 CELLS/uL | ABSOLUTE SEGMENTED NEUTROPHIL [1]: 1192.33 CELLS/uL | BASOPHIL [1]: 0% | EOSINOPHIL [1]: 0% | ERYTHROCYTE COUNT [1]: 5.51 x10E6/uL | HEMATOCRIT [1]: 35.45% | HEMOGLOBIN [1]: 13.82 G/DL | LEUKOCYTE COUNT [1]: 13.57 x10E3/uL | LYMPHOCYTE [1]: 89.83% | MEAN CORPUSCULAR HEMOGLOBIN [1]: 25.1 pg | MEAN CORPUSCULAR HEMOGLOBIN CONCENTRATION [1]: 38.98 G/DL | MEAN CORPUSCULAR VOLUME [1]: 64.42 fL | MONOCYTE [1]: 1.33% | NEUTROPHIL [1]: 8.83% | NUCLEATED RED BLOOD CELLS [1]: 0 /100WBC | PLATELET COUNT [1]: 1118.17 x10E3/uL | ALANINE AMINOTRANSFERASE [1]: 55 u/L | ALBUMIN [1]: 4.15 G/DL | ALKALINE PHOSPHATASE [1]: 449.5 u/L | ASPARTATE AMINOTRANSFERASE [1]: 112.83 u/L | BLOOD UREA NITROGEN [1]: 17.33 mg/dL | CARBON DIOXIDE [1]: 29.5 mmol/L | CHLORIDE [1]: 101 MEQ/L | CHOLESTEROL [1]: 70 mg/dL | CREATINE PHOSPHOKINASE [1]: 1325.83 u/L | CREATININE [1]: 0.18 mg/dL | GLUCOSE [1]: 171.5 mg/dL | LACTATE DEHYDROGENASE [1]: 386 u/L | LIPASE [1]: 10 u/L | PHOSPHORUS [1]: 11.57 mg/dL | POTASSIUM [1]: 6.21 MEQ/L | SODIUM [1]: 141.65 MEQ/L | TOTAL BILIRUBIN [1]: 0.15 mg/dL | TOTAL PROTEIN [1]: 5.75 G/DL | URIC ACID [1]: 1.28 mg/dL | ABSOLUTE BASOPHIL [2]: 0 CELLS/uL | ABSOLUTE EOSINOPHIL [2]: 138.17 CELLS/uL | ABSOLUTE LYMPHOCYTE [2]: 13283.17 CELLS/uL | ABSOLUTE MONOCYTE [2]: 303.83 CELLS/uL | ABSOLUTE SEGMENTED NEUTROPHIL [2]: 1308.17 CELLS/uL | BASOPHIL [2]: 0% | EOSINOPHIL [2]: 1% | ERYTHROCYTE COUNT [2]: 5.32 x10E6/uL | HEMATOCRIT [2]: 33.8% | HEMOGLOBIN [2]: 13.63 G/DL | LEUKOCYTE COUNT [2]: 15.03 x10E3/uL | LYMPHOCYTE [2]: 88.33% | MEAN CORPUSCULAR HEMOGLOBIN [2]: 25.68 pg | MEAN CORPUSCULAR HEMOGLOBIN CONCENTRATION [2]: 40.35 G/DL | MEAN CORPUSCULAR VOLUME [2]: 63.67 fL | MONOCYTE [2]: 1.83% | NEUTROPHIL [2]: 8.83% | NUCLEATED RED BLOOD CELLS [2]: 0 /100WBC | PLATELET COUNT [2]: 1097.5 x10E3/uL | ALANINE AMINOTRANSFERASE [2]: 54.5 u/L | ALBUMIN [2]: 4.27 G/DL | ALKALINE PHOSPHATASE [2]: 337 u/L | ASPARTATE AMINOTRANSFERASE [2]: 94.67 u/L | BLOOD UREA NITROGEN [2]: 17 mg/dL | CARBON DIOXIDE [2]: 28.33 mmol/L | CHLORIDE [2]: 101.5 MEQ/L | CHOLESTEROL [2]: 71.33 mg/dL | CREATINE PHOSPHOKINASE [2]: 628.17 u/L | CREATININE [2]: 0.19 mg/dL | GLUCOSE [2]: 177.83 mg/dL | LACTATE DEHYDROGENASE [2]: 500.5 u/L | LIPASE [2]: 9.5 u/L | PHOSPHORUS [2]: 12.3 mg/dL | POTASSIUM [2]: 5.63 MEQ/L | SODIUM [2]: 143.03 MEQ/L | TOTAL BILIRUBIN [2]: 0.2 mg/dL | TOTAL PROTEIN [2]: 6.02 G/DL | URIC ACID [2]: 1.5 mg/dL | ABSOLUTE BASOPHIL [3]: 0 CELLS/uL | ABSOLUTE EOSINOPHIL [3]: 0 CELLS/uL | ABSOLUTE LYMPHOCYTE [3]: 7950 CELLS/uL | ABSOLUTE MONOCYTE [3]: 225 CELLS/uL | ABSOLUTE SEGMENTED NEUTROPHIL [3]: 1825 CELLS/uL | BASOPHIL [3]: 0% | EOSINOPHIL [3]: 0% | ERYTHROCYTE COUNT [3]: 6.97 x10E6/uL | HEMATOCRIT [3]: 42.9% | HEMOGLOBIN [3]: 16.67 G/DL | LEUKOCYTE COUNT [3]: 10 x10E3/uL | LYMPHOCYTE [3]: 77% | MEAN CORPUSCULAR HEMOGLOBIN [3]: 23.97 pg | MEAN CORPUSCULAR HEMOGLOBIN CONCENTRATION [3]: 38.87 G/DL | MEAN CORPUSCULAR VOLUME [3]: 61.6 fL | MONOCYTE [3]: 2.33% | NEUTROPHIL [3]: 20.67% | NUCLEATED RED BLOOD CELLS [3]: 0 /100WBC | PLATELET COUNT [3]: 1501 x10E3/uL | ALANINE AMINOTRANSFERASE [3]: 133 u/L | ALBUMIN [3]: 4.1 G/DL | ALKALINE PHOSPHATASE [3]: 344 u/L | ASPARTATE AMINOTRANSFERASE [3]: 444 u/L | BLOOD UREA NITROGEN [3]: 70.67 mg/dL | CARBON DIOXIDE [3]: 23 mmol/L | CHLORIDE [3]: 102.5 MEQ/L | CHOLESTEROL [3]: 44.33 mg/dL | CREATINE PHOSPHOKINASE [3]: 1897.33 u/L | CREATININE [3]: 0.69 mg/dL | GLUCOSE [3]: 201 mg/dL | LACTATE DEHYDROGENASE [3]: 1757 u/L | LIPASE [3]: 14.33 u/L | PHOSPHORUS [3]: 18 mg/dL | POTASSIUM [3]: 6.26 MEQ/L | SODIUM [3]: 145.75 MEQ/L | TOTAL BILIRUBIN [3]: 0.73 mg/dL | TOTAL PROTEIN [3]: 5.93 G/DL | URIC ACID [3]: 2.83 mg/dL

Reference: ChEMBL document CHEMBL3885881, “DrugMatrix”
